Assays:
[1] = In vitro metabolic stability in human liver microsomes (Example 34); type: in vitro ADME; conditions: 1 μM, predicted hepatic extraction ratio
Experimental: (§1) In vitro metabolic stabilities were studied at a concentration of 1 μM in the presence of liver microsomes and isolated hepatocytes.
(§2) A 100 mM potassium phosphate assay buffer solution (KPB) was prepared as follows. Both KH2PO4 and K2HPO4 were dissolved separately in reagent grade water resulting in final concentrations 100 mM. A 75:25 mixture v/v of K2HPO4:KH2PO4 was prepared and the pH of the solution was adjusted to 7.4 using diluted HCl or diluted NaOH solutions. A stock solution of test compound was prepared at 10 mM (active compound) in DMSO. The stock solution was diluted immediately before use to 2.5 μM using the KPB solution to create the working standard. All test compounds were completely soluble in DMSO by visual inspection at room temperature. […]
(§3) Data were acquired and peak areas were calculated for test compounds and the internal standard using Analyst 1.6.1 software (Sciex). […]
(§4) All calculations were performed using BioAssay Enterprise. The mean peak area ratios were calculated by averaging the peak area ratios (n=2) of test compound and the internal standard for each sample. Percent remaining was calculated by determining the ratio of the peak area ratio at each time point to the peak area ratio of the time-zero samples. The rate of loss of test compound (km) was determined by linear regression of—1n(f(t)) versus time. […] The t½ was determined dividing 1n(2) by km. […]

[2] = In vitro metabolic stability in rat liver microsomes (Example 34); type: in vitro ADME, Sprague Dawley rat; conditions: 1 μM, predicted hepatic extraction ratio
Experimental: as §1, §2, §3, §4

With `C[C@@H]1CCc2ncc(F)cc2[C@H]2CCCN2c2ccn3ncc(c3n2)C(=O)N1` [Formula I] the “Human Microsome Clearance (% ER)” value [1] was 79 % ER and the “Rat Microsome Clearance (% ER)” value [2] was 51 % ER.

For `C[C@H]1CCc2ncc(F)cc2[C@H]2CCCN2c2ccn3ncc(c3n2)C(=O)N1` [formula I′], the “Human Microsome Clearance (% ER)” value [1] was 92 % ER and the “Rat Microsome Clearance (% ER)” value [2] was 77 % ER.

Source: patent US11091486B2, “Process for the preparation of pyrazolo[1,5-a]pyrimidines and salts thereof” (Array BioPharma Inc., priority 2016, dated 2021)
